In assay [1] the target is T1, human muscarinic M3 receptor (Homo sapiens, UniProt P20309).
T1 construct: purchased Perkin Elmer; host or cells: CHO-K1 cells (membranes)
Briefly: Human muscarinic M3 receptor binding assay ([3H]-NMS, CHO-K1 membranes). As for the experimental part: Test 2: Human Muscarinic M1, M2, M3, M4 and M5 Receptors Binding Assays
The study of binding to human muscarinic M1, M2, M3, M4 and M5 receptors was performed using commercial membranes (Perkin Elmer) prepared from CHO-K1 cells. Radioligand binding experiments were conducted in 96 polypropylene well plates in a total volume of 200 μl. All reagents were dissolved in assay binding buffer (PBS with calcium and magnesium, SIGMA), except compounds that were dissolved in DMSO 100%. Non-specific binding (NSB) was measured in the presence of 1 μM atropine. [3H]-NMS was used as the radioligand at a concentration of 1 nM for M2, M3 and M5 and 0.3 nM for M1 and M4. [3H]-NMS and antagonists were incubated with membranes that express human muscarinic receptors M1, M2, M3, M4 and M5 at concentrations of 8.1, 10, 4.9, 4.5 and 4.9 μg/well, respectively. After an incubation period of two hours with gentle shaking, 150 μl of the reaction mix were transferred to 96 GF/C filter plates (Millipore), previously treated with wash buffer (Tris 50 mM; NaCl 100 mM; pH:7.4), containing 0.05% PEI (Sigma) during one hour. Bound and free [3H]-NMS were separated by rapid vacuum filtration in a manifold from Millipore and washed four times with ice cold wash buffer. After drying 30 min, 30 μl of OPTIPHASE Supermix were added to each well and radioactivity quantified using a Microbeta microplate scintillation counter.
The affinity of each test compound to the receptors was determined by using ten different concentrations ran in duplicate. IC50s were calculated using Activity Base software from IDBS and the four parameters-log equation.

Assay [2] addresses T2, human adrenergic beta2 receptor (Homo sapiens, UniProt P07550).
T2 construct: purchased Perkin Elmer; host or cells: Sf9 cells (membranes)
The assay is described as follows: Human adrenergic β2 receptor binding assay (3H-CGP12177, Sf9 membranes). As for the experimental part: Test 1: Human Adrenergic β1 and β2 Receptor Binding Assays
The study of binding to human adrenergic beta1 and beta2 receptors was performed using commercial membranes prepared from Sf9 cells where they are overexpressed (Perkin Elmer). The membrane suspensions (16 μg/well for beta1 and 5 μg/well for beta2) in assay buffer (75 mM Tris/HCl with 12.5 mM MgCl2 and 2 mM EDTA pH=7.4) were incubated with 0.14 or 0.6 nM of 3H-CGP12177 (Amersham) for beta 1 and beta 2 receptors respectively in a final volume of 250 μl, in GFC Multiscreen 96 well plates (Millipore) previously treated with assay buffer containing 0.3% PEI (Sigma). Non specific binding was measured in the presence of 1 μM propanolol. Incubation was maintained for 60 minutes at room temperature and with gentle shaking. The binding reactions were terminated by filtration and washing with 2.5 volumes of Tris/HCl 50 mM pH=7.4. The affinity of each test compound to the receptor was determined by using ten different concentrations ran in duplicate. IC50s were calculated using Activity Base software from IDBS and the four parameters-log equation.

[3] abbreviates: membranes from CHO-K1 cells expressing human M3, 1 nM [3H]-NMS, read-out: Binding IC50, M3.
Setting [4] is: membranes from Sf9 cells overexpressing human beta2, 0.6 nM 3H-CGP12177, read-out: Binding IC50, β2.

IC50 data for 14 molecules are collected here from US20140303127A1, “NEW CYCLOHEXYLAMINE DERIVATIVES HAVING BETA 2 ADRENERGIC AGONIST AND M3 MUSCARINIC ANTAGONIST ACTIVITIES” (ALMIRALL, S.A., priority 2011, published 2014).

Read-outs that look alike come from different tables or passages of the source.

T1 sequence (P20309 whole entry): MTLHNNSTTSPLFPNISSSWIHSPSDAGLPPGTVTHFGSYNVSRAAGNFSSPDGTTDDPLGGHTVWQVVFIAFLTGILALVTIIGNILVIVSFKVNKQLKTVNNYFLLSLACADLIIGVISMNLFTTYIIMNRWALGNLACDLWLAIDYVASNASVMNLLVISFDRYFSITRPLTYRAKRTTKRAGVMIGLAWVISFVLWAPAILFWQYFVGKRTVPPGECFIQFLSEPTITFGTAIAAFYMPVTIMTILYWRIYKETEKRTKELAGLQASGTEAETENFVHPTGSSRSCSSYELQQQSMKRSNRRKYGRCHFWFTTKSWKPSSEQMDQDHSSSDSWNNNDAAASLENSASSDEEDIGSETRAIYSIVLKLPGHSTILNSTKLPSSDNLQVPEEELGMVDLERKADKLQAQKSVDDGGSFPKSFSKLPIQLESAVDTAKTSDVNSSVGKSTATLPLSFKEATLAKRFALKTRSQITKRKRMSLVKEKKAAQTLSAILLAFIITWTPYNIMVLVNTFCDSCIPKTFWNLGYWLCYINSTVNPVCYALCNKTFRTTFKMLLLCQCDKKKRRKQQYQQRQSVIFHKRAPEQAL

Usually IC50 stands for the concentration that inhibits the measured activity by half. As to `CN(CCCn1ccc2cc(CNC[C@H](O)c3ccc(O)c4[nH]c(=O)ccc34)ccc21)[C@H]1CC[C@H](OC(=O)C(O)(c2cccs2)c2cccs2)CC1` (relative stereo) [Example 4, trans-4-[{3-[5-({[(2R)-2-hydroxy-2-(8-hydroxy-2-oxo-1,2-dihydroquinolin-5-yl)ethyl]amino}methyl)-1H-indol-1-yl]propyl}(methyl)amino]cyclohexyl hydroxy(di-2-thienyl)acetate dihydrofluoride], the concentration for half-maximal inhibition (IC50) in assay [1] (setting [3]) is 0.6 nM; in assay [2] (setting [4]) it was 220 nM.
The matching figures for `CN(CCNC(=O)COc1ccc(CNC[C@H](O)c2ccc(O)c3[nH]c(=O)ccc23)cc1)[C@H]1CC[C@H](OC(=O)C(O)(c2cccs2)c2cccs2)CC1` (relative stereo) [Example 8, trans-4-[[2-({[4-({[(2R)-2-hydroxy-2-(8-hydroxy-2-oxo-1,2-dihydroquinolin-5-yl)ethyl]amino}methyl)phenoxy]acetyl}amino)ethyl](methyl)amino]cyclohexyl hydroxy(di-2-thienyl)acetate dihydrofluoride]: 2.2 nM and 18 nM.
With `CN(CCCn1c(=O)oc2cc(CNC[C@H](O)c3ccc(O)c4[nH]c(=O)ccc34)ccc21)[C@H]1CC[C@H](OC(=O)C(O)(c2cccs2)c2cccs2)CC1` [Example 1, trans-4-[{3-[6-({[(2R)-2-hydroxy-2-(8-hydroxy-2-oxo-1,2-dihydroquinolin-5-yl)ethyl]amino}methyl)-2-oxo-1,3-benzoxazol-3(2H)-yl]propyl}(methyl)amino]cyclohexyl hydroxy(di-2-thienyl)acetate, dihydrofluoride], the IC50 stood at 0.3 nM in assay [1] (setting [3]) and 140 nM in assay [2] (setting [4]).
For `CN(CCCn1c(=O)[nH]c2cc(CNC[C@H](O)c3ccc(O)c4[nH]c(=O)ccc34)ccc21)[C@H]1CC[C@H](OC(=O)C(O)(c2cccs2)c2cccs2)CC1` [Example 2, trans-4-[{3-[5-({[(2R)-2-hydroxy-2-(8-hydroxy-2-oxo-1,2-dihydroquinolin-5-yl)ethyl]amino}methyl)-2-oxo-2,3-dihydro-1H-benzimidazol-1-yl]propyl}(methyl)amino]cyclohexyl hydroxy(di-2-thienyl)acetate dihydrofluoride], the half-inhibitory concentration (IC50) in assay [1] was found to be 0.4 nM; in assay [2], 120 nM.
`CN(CCCc1nc(-c2ccc(CNC[C@H](O)c3ccc(O)c4[nH]c(=O)ccc34)cc2)no1)[C@H]1CC[C@H](OC(=O)C(O)(c2cccs2)c2cccs2)CC1` [Example 5, trans-4-[(3-{3-[4-({[(2R)-2-hydroxy-2-(8-hydroxy-2-oxo-1,2-dihydroquinolin-5-yl)ethyl]amino}methyl)phenyl]-1,2,4-oxadiazol-5-yl}propyl)(methyl)amino]cyclohexyl hydroxy(di-2-thienyl)acetate dihydrofluoride]: the figures for the IC50 in assay [1] (setting [3]) and in assay [2] (setting [4]) were 0.4 nM and 2.7 nM, respectively.
Turning to `CN(CCN(C)[C@H]1CC[C@H](OC(=O)C(O)(c2cccs2)c2cccs2)CC1)C(=O)COc1ccc(CNC[C@H](O)c2ccc(O)c3[nH]c(=O)ccc23)cc1` [Example 6, trans-4-[{2-[{[4-({[(2R)-2-hydroxy-2-(8-hydroxy-2-oxo-1,2-dihydroquinolin-5-yl)ethyl]amino}methyl)phenoxy]acetyl}(methyl)amino]ethyl}(methyl)amino]cycloh exyl hydroxy(di-2-thienyl)acetate dihydrofluoride], the 50% inhibitory concentration (IC50) in assay [1] (setting [3]) stood at 1.4 nM; in assay [2] (setting [4]), 34 nM.
With `COc1cc(-c2noc(CCCN(C)[C@H]3CC[C@H](OC(=O)C(O)(c4cccs4)c4cccs4)CC3)n2)c(Cl)cc1CNC[C@H](O)c1ccc(O)c2[nH]c(=O)ccc12` [Example 9, trans-4-[(3-{3-[2-chloro-4-({[(2R)-2-hydroxy-2-(8-hydroxy-2-oxo-1,2-dihydroquinolin-5-yl)ethyl]amino}methyl)-5-methoxyphenyl]-1,2,4-oxadiazol-5-yl}propyl)(methyl)amino]cyclohexyl hydroxy(di-2-thienyl)acetate dihydrofluoride], the figures for the 50% inhibitory concentration (IC50) in assay [1] and in assay [2] were 0.2 nM and 2.2 nM, respectively.
Take `COc1cc(OCC(=O)N(C)CCN(C)[C@H]2CC[C@H](OC(=O)C(O)(c3cccs3)c3cccs3)CC2)c(Cl)cc1CNC[C@H](O)c1ccc(O)c2[nH]c(=O)ccc12` [Example 10, trans-4-[{2-[{[2-chloro-4-({[(2R)-2-hydroxy-2-(8-hydroxy-2-oxo-1,2-dihydroquinolin-5-yl)ethyl]amino}methyl)-5-methoxyphenoxy]acetyl}(methyl)amino]ethyl}(methyl)amino]cyclohexyl hydroxy(di-2-thienyl)acetate dihydrofluoride]: the 50% inhibitory concentration (IC50) in assay [1] came out at 0.4 nM; in assay [2], 5.7 nM.
As to `CN(CCCn1c(=O)sc2cc(CNC[C@H](O)c3ccc(O)c4[nH]c(=O)ccc34)ccc21)[C@H]1CC[C@H](OC(=O)C(O)(c2cccs2)c2cccs2)CC1` [Example 11, trans-4-[{3-[6-({[(2R)-2-hydroxy-2-(8-hydroxy-2-oxo-1,2-dihydroquinolin-5-yl)ethyl]amino}methyl)-2-oxo-1,3-benzothiazol-3(2H)-yl]propyl}(methyl)amino]cyclohexyl hydroxy(di-2-thienyl)acetate dihydrofluoride], the half-inhibitory concentration (IC50) came out at 0.5 nM in assay [1] (setting [3]) and 4.2 nM in assay [2] (setting [4]).
Consider `CN(CCCn1c(=O)oc2cc(CNC[C@H](O)c3ccc(O)c4[nH]c(=O)ccc34)ccc21)[C@H]1CC[C@H](OC(=O)C2(C)c3ccccc3Oc3ccccc32)CC1` [Example 15, trans-4-[{3-[6-({[(2R)-2-hydroxy-2-(8-hydroxy-2-oxo-1,2-dihydroquinolin-5-yl)ethyl]amino}methyl)-2-oxo-1,3-benzoxazol-3(2H)-yl]propyl}(methyl)amino]cyclohexyl 9-methyl-9H-xanthene-9-carboxylate dihydrofluoride], for which the 50% inhibitory concentration (IC50) in assay [1] (setting [3]) stood at 1 nM; in assay [2] (setting [4]), 1.5 nM.
The matching figures for `CN(CCCn1nnc2cc(CNC[C@H](O)c3ccc(O)c4[nH]c(=O)ccc34)ccc21)[C@H]1CC[C@H](OC(=O)[C@](O)(c2cccs2)C2CCCC2)CC1` [Example 17, trans-4-[{3-[5-({[(2R)-2-hydroxy-2-(8-hydroxy-2-oxo-1,2-dihydroquinolin-5-yl)ethyl]amino}methyl)-1H-1,2,3-benzotriazol-1-yl]propyl}(methyl)amino]cyclohexyl (2S)-cyclopentyl(hydroxy)-2-thienylacetate dihydrofluoride]: 0.6 nM and 13 nM.
Regarding “trans-4-[{3-[5-({[(2R)-2-hydroxy-2-(5-hydroxy-3-oxo-3,4-dihydro-2H-1,4-benzoxazin-8-yl)ethyl]amino}methyl)-1H-1,2,3-benzotriazol-1-yl]propyl}(methyl)amino]cyclohexyl (2S)-cyclopentyl(hydroxy)-2-thienylacetate dihydrofluoride [Example 18]”, the IC50 in assay [1] (setting [3]) stood at 0.4 nM.
In the case of “trans-4-[{3-[6-(2-{[(2R)-2-hydroxy-2-(8-hydroxy-2-oxo-1,2-dihydroquinolin-5-yl)ethyl]amino}ethyl)-2-oxo-1,3-benzoxazol-3(2H)-yl]propyl}(methyl)amino]cyclohexyl hydroxy(di-2-thienyl)acetate dihydrofluoride [Example 19]”, the values for the IC50 in assay [1] (setting [3]) and in assay [2] (setting [4]) were 0.8 nM and 62 nM, respectively.
For “trans-4-{[2-({2-[4-(2-{[(2R)-2-hydroxy-2-(8-hydroxy-2-oxo-1,2-dihydroquinolin-5-yl)ethyl]amino}propyl)phenoxy]acetyl}amino)ethyl]amino}cyclohexyl hydroxy(di-2-thienyl)acetate dihydrofluoride [Example 20]”, the results for the IC50 in assay [1] (setting [3]) and in assay [2] (setting [4]) were 3.6 nM and 3.1 nM, respectively.
